# “Also recorded” adds a separate entry of the source.
# Experiments:
# [1] = Solubility assay of RES sources in water vs 80% methanol; type: physicochemical
# Description: RGC, synthetic resveratrol (S-RES; Sigma-Aldrich) and resveratrol extract from the plant Polygonum Capsidatum (plant-RES) were dissolved in 80% methanol to achieve 100% dissolution. Then, all RES sources were dissolved in water at pH 2 and pH 7 and the percentage of dissolution in water was compared to the dissolution in methanol. The RES in all samples was monitored at 306 nm, based on its characteristic absorption profile, and its concentration was determined by a calibration curve of resveratrol analytical standard.
# [2] = in vivo; cited from earlier work
# [3] = test system: carrageenan-induced behavioral hyperalgesia in rats; test: Hot plate method for measuring inflammatory nociception in freely moving rats; type: in vivo, rat; conditions: RGC 400 mg/kg oral (p<0.01) or indomethacin 2 mg/kg (p<0.05-0.01)
# Description: The study assessed the efficacy of the RGC by two methods: • 1. Paw volume measurements • 2. Inflammatory nociception in freely moving rats • Red Grape Cells (RGC) prepared according to example 1. • RGC was administered orally at dose of 400 mg/kg body weight as a suspension in sterile drinking water, 2 h before carrageenan injection. The dose level was 40 mg/ml. Each rat was dosed with 1 ml of suspension per 100 g body weight. • RGC Composition: […] Rats were divided into three groups of eight rats in each group. The rats in all groups were injected with 1% Carrageenan ([…]) or sterile saline (0.9% NaCl) into the sub plantar tissue of left hind paw of each rat. The Following Tests were Performed: The hot plate method was used to determine inflammatory nociception in freely moving rates. After inducing edema and treatment with vehicle, indomethacin or RGC preparation, the rats were placed on a hot plate maintained at a temperature of 55±0.5° C. The latency to flick or lick the hind paw or jump from the hot plate in comparison to its baseline was considered as the reaction time. […]
# [4] = test system: carrageenan-induced hind paw inflammation in rats; test: Carrageenan-induced paw oedema rat model, paw volume measurements; type: in vivo; conditions: RGC 400 mg/kg oral or indomethacin 2 mg/kg 2 h before carrageenan, two-way ANOVA, Bonferroni, p<0.001
# Excerpt: The aim of the present study was to evaluate in vivo anti-inflammatory activity of RGC (Red Grape Cells) made according to the large scale process of the invention in an acute inflammation model in rats so as to verify the efficiency of the cells produced according to the invention. One of the experimental models most widely used to study acute inflammation in rodents is that based on the intraplantar administration of carrageenan. The study assessed the efficacy of the RGC by two methods: • 1. Paw volume measurements • 2. Inflammatory nociception in freely moving rats • Red Grape Cells (RGC) prepared according to example 1. • RGC was administered orally at dose of 400 mg/kg body weight as a suspension in sterile drinking water, 2 h before carrageenan injection. The dose level was 40 mg/ml. Each rat was dosed with 1 ml of suspension per 100 g body weight. • RGC Composition: […] Rats were divided into three groups of eight rats in each group. The rats in all groups were injected with 1% Carrageenan ([…]) or sterile saline (0.9% NaCl) into the sub plantar tissue of left hind paw of each rat. The Following Tests were Performed: • paw volumes were measured hourly just before carrageenan injection at time point 0 and 1, 2, 4 hours after injection using caliper. • The paw dimensions were measured in two axes and paw volume was calculated. […]
molecule,measurement,setting,value
"resveratrol (trans-3,5,4′-trihydroxystilbene) [Synthetic-RES]",dissolution in 80% methanol solution,[1]; 80% methanol,completely dissolved
same,"dissolution of RES in water, percentage compared to dissolution in methanol","[1]; acidified water pH=2 as well as pH 7.0, RES monitored at 306 nm, FIG. 5",7%
Oc1ccc(/C=C/c2cc(O)cc(O)c2)cc1,shape of concentration time curve,[2],distinct single concentration peak
COc1ccc2c(c1)c(CC(=O)O)c(C)n2C(=O)c1ccc(Cl)cc1 [indomethacin],"Hot plate latency delta, baseline-actual time, comparison to vehicle control (1M)",[3]; FIG. 3,"significant decrease in the latency delta of response to the thermal stimulus, 2 and 4 hours after carrageenan injection; also recorded: statistically significant difference at 2 and 4 h"
same,"Hot plate latency, % from baseline, comparison to control group (1M)","[3]; hot plate 55°C, FIG. 2",statistically significant difference at 2 and 4 h
same,"paw edema (volume %), comparison to control group (1M)",[4],statistically significant difference at 2 and 4 h

# Source: patent US20150275169A1, “PROCESS FOR THE LARGE SCALE PRODUCTION OF FRUIT CELLS” (BIO HARVEST LTD., priority 2012, published 2015)
